# Laboratory results taken from patent US11427548B2 (Arvinas Operations, Inc., priority 2015, dated 2022).
# Like-named read-outs stand apart in the source and are kept apart here.
# Target: T1, Androgen Receptor (Homo sapiens, UniProt P10275)
# T1 construct: endogenous in cells; host or cells: VCaP cells
# T1 sequence (P10275 1-920): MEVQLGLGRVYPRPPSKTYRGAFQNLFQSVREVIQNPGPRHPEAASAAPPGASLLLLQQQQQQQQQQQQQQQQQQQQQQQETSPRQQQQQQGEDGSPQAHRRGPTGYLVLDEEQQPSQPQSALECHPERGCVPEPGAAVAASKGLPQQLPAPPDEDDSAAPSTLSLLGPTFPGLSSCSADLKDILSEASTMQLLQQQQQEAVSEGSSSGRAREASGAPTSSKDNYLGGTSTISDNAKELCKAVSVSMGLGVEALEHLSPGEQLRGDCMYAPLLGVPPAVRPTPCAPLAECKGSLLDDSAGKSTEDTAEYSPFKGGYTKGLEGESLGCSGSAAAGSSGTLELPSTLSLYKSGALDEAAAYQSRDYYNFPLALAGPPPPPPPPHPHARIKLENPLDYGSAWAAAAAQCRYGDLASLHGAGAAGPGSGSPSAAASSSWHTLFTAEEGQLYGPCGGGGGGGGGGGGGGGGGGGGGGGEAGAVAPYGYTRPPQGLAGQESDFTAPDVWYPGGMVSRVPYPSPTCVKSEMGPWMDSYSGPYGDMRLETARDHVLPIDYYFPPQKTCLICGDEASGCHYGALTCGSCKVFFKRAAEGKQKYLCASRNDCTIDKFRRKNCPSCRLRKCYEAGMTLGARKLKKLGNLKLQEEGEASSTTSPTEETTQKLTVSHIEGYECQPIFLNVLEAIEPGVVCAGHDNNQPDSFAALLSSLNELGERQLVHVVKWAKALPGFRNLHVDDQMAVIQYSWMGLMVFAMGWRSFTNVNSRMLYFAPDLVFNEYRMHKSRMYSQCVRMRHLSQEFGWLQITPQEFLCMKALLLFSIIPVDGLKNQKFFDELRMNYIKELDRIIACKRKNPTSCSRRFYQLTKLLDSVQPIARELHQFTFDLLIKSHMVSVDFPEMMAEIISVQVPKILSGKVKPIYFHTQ
# Test: Androgen Receptor ELISA assay (PathScan AR ELISA) in VCaP cells: AR degradation, Dmax and DC50
# Format: cell-based
# In short: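 After 24 h exposure of VCaP cells (charcoal-stripped serum, 0.1 nM R1881 agonist, 0.1% DMSO) to seven half-log compound concentrations, residual AR in lysates was measured by PathScan ELISA (TMB absorbance, 450 nm). Cells were plated at 30,000/well and grown at least 3 days beforehand.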
# [1] = read-out: VCaP DC50; concentration that caused 50% Androgen Receptor degradation, VCaP cells (Table 32)
# [2] = VCaP, highest percentage of Androgen Receptor degradation observed, VCaP cells (Table 32); read-out: VCaP Dmax (%)
# [3] = concentration that caused 50% Androgen Receptor degradation, VCaP cells (Table 32); read-out: VCaP DC50
SMILES,"Dmax (VCaP, read-out: VCaP Dmax (%)) [%]",DC50 [1] [nM],Dmax [2] [%],DC50 [3] [nM]
"Cc1ncsc1-c1ccc([C@H](C)NC(=O)[C@@H]2C[C@@H](O)CN2C(=O)[C@@H](NC(=O)COCCCCOc2ccc(-c3ccc(N4C(=S)N(c5ccc(C#N)c(C(F)(F)F)c5)C(=O)C4(C)C)c(F)c3)cc2)C(C)(C)C)cc1 [Example 137, (2S,4R)-1-[(2S)-2-(2-{4-[4-(4-{3-[4-cyano-3-(trifluoromethyl)phenyl]-5,5-dimethyl-4-oxo-2-sulfanylideneimidazolidin-1-yl}-3-fluorophenyl)phenoxy]butoxy}acetamido)-3,3-dimethylbutanoyl]-4-hydroxy-N-[(1S)-1-[4-(4-methyl-1,3-thiazol-5-yl)phenyl]ethyl]pyrrolidine-2-carboxamide]",> 71,< 50,,
"Cc1ncoc1-c1ccc([C@H](C)NC(=O)[C@@H]2C[C@@H](O)CN2C(=O)[C@@H](NC(=O)COCCCCOc2ccc(-c3ccc(N4C(=S)N(c5ccc(C#N)c(C(F)(F)F)c5)C(=O)C4(C)C)c(F)c3)cc2)C(C)(C)C)cc1 [Example 138, (2S,4R)-1-[(2S)-2-(2-{4-[4-(4-{3-[4-cyano-3-(trifluoromethyl)phenyl]-5,5-dimethyl-4-oxo-2-sulfanylideneimidazolidin-1-yl}-3-fluorophenyl)phen-oxy]butoxy}acetamido)-3,3-dimethylbutanoyl]-4-hydroxy-N-[(1S)-1-[4-(4-methyl-1,3-oxazol-5-yl)phenyl]ethyl]pyrrolidine-2-carboxamide]",> 71,< 50,,
"COc1cc(-c2ccc(N3C(=S)N(c4ccc(C#N)c(C(F)(F)F)c4)C(=O)C3(C)C)cc2)ccc1OCCCCOCC(=O)N[C@H](C(=O)N1C[C@H](O)C[C@H]1C(=O)NCc1ccc(-c2scnc2C)cc1)C(C)(C)C [Example 139, (2S,4R)-1-[(2S)-2-(2-{4-[4-(4-{3-[4-cyano-3-(trifluoromethyl)phenyl]-5,5-dimethyl-4-oxo-2-sulfanylideneimidazolidin-1-yl}phenyl)-2-methoxyphenoxy]butoxy}acetamido)-3,3-dimethylbutanoyl]-4-hydroxy-N-{[4-(4-methyl-1,3-thiazol-5-yl)phenyl]methyl}pyrrolidine-2-carboxamide]",> 71,< 50,,
"COc1cc(OCCCCOCC(=O)N[C@H](C(=O)N2C[C@H](O)C[C@H]2C(=O)NCc2ccc(-c3scnc3C)cc2)C(C)(C)C)ccc1-c1ccc(N2C(=S)N(c3ccc(C#N)c(C(F)(F)F)c3)C(=O)C2(C)C)cc1 [Example 140, (2S,4R)-1-[(2S)-2-(2-{4-[4-(4-{3-[4-cyano-3-(trifluoromethyl)phenyl]-5,5-dimethyl-4-oxo-2-sulfanylideneimidazolidin-1-yl}phenyl)-3-methoxyphenoxy]butoxy}acetamido)-3,3-dimethylbutanoyl]-4-hydroxy-N-{[4-(4-methyl-1,3-thiazol-5-yl)phenyl]methyl}pyrrolidine-2-carboxamide]",> 71,< 50,,
"Cc1ncsc1-c1ccc(CNC(=O)[C@@H]2C[C@@H](O)CN2C(=O)[C@@H](NC(=O)COCCC[C@@H](C)Oc2ccc(-c3ccc(N4C(=S)N(c5ccc(C#N)c(C(F)(F)F)c5)C(=O)C4(C)C)cc3)cc2)C(C)(C)C)cc1 [Example 141, (2S,4R)-1-[(2S)-2-(2-{[(4S)-4-[4-(4-{3-[4-cyano-3-(trifluoromethyl)phenyl]-5,5-dimethyl-4-oxo-2-sulfanylideneimidazolidin-1-yl}phenyl)phen-oxy]pentyl]oxy}acetamido)-3,3-dimethylbutanoyl]-4-hydroxy-N-{[4-(4-methyl-1,3-thiazol-5-yl)phenyl]methyl}pyrrolidine-2-carboxamide]",> 71,< 50,,
"Cc1ncsc1-c1ccc(CNC(=O)[C@@H]2C[C@@H](O)CN2C(=O)[C@@H](NC(=O)COCCC[C@H](C)Oc2ccc(-c3ccc(N4C(=S)N(c5ccc(C#N)c(C(F)(F)F)c5)C(=O)C4(C)C)cc3)cc2)C(C)(C)C)cc1 [Example 142, (2S,4R)-1-[(2S)-2-(2-{[(4R)-4-[4-(4-{3-[4-cyano-3-(trifluoromethyl)phenyl]-5,5-dimethyl-4-oxo-2-sulfanylideneimidazolidin-1-yl}phenyl)phen-oxy]pentyl]oxy}acetamido)-3,3-dimethylbutanoyl]-4-hydroxy-N-{[4-(4-methyl-1,3-thiazol-5-yl)phenyl]methyl}pyrrolidine-2-carboxamide]",> 71,< 50,,
"Cc1ncsc1-c1ccc([C@H](C)NC(=O)[C@@H]2C[C@@H](O)CN2C(=O)[C@@H](NC(=O)COCCCCNc2ccc(-c3ccc(N4C(=S)N(c5ccc(C#N)c(C(F)(F)F)c5)C(=O)C4(C)C)cc3)cc2)C(C)(C)C)cc1 [Example 145, (2S,4R)-1-[(2S)-2-[2-(4-{[4-(4-{3-[4-cyano-3-(trifluoromethyl)phenyl]-5,5-dimethyl-4-oxo-2-sulfanylideneimidazolidin-1-yl}phenyl)phen-yl]amino}butoxy)acetamido]-3,3-dimethylbutanoyl]-4-hydroxy-N-[(1S)-1-[4-(4-methyl-1,3-thiazol-5-yl)phenyl]ethyl]pyrrolidine-2-carboxamide]",> 71,< 50,,
"Cc1ncsc1-c1ccc(CNC(=O)[C@@H]2C[C@@H](O)CN2C(=O)[C@@H](NC(=O)COCCCCOc2ccc(-c3ccc(N4C(=S)N(c5ccc(C#N)c(C(F)(F)F)c5)C(=O)C4(C)C)cc3)c(F)c2)C(C)(C)C)cc1 [Example 149, (2S,4R)-1-[(2S)-2-(2-{4-[4-(4-{3-[4-cyano-3-(trifluoromethyl)phenyl]-5,5-dimethyl-4-oxo-2-sulfanylideneimidazolidin-1-yl}phenyl)-3-fluorophenoxy]butoxy}acetamido)-3,3-dimethylbutanoyl]-4-hydroxy-N-{[4-(4-methyl-1,3-thiazol-5-yl)phenyl]methyl}pyrrolidine-2-carboxamide]",> 71,< 50,,
"Cc1ncsc1-c1ccc(CNC(=O)[C@@H]2C[C@@H](O)CN2C(=O)[C@@H](NC(=O)COCCCCCOc2ccc(C(=O)N[C@H]3C(C)(C)[C@H](Oc4ccc(C#N)c(Cl)c4)C3(C)C)cc2)C(C)(C)C)cc1 [Example 151, (2S,4R)-1-[(2S)-3,3-dimethyl-2-(2-{[5-(4-{[trans-3-(3-chloro-4-cyanophenoxy)-2,2,4,4-tetramethylcyclobutyl]carbamoyl}phen-oxy)pentyl]oxy}acetamido)butanoyl]-4-hydroxy-N-{[4-(4-methyl-1,3-thiazol-5-yl)phenyl]methyl}pyrrolidine-2-carboxamide]",,,> 71,< 50
"Cc1ncoc1-c1ccc(CNC(=O)[C@@H]2C[C@@H](O)CN2C(=O)[C@@H](NC(=O)COCCCCCOc2ccc(C(=O)NC3C(C)(C)C(Oc4ccc(C#N)c(Cl)c4)C3(C)C)cc2)C(C)(C)C)cc1 (stereo partly drawn) [Example 152, (2S,4R)-1-[(2S)-3,3-dimethyl-2-(2-{[5-(4-{[trans-3-(3-chloro-4-cyanophenoxy)-2,2,4,4-tetramethylcyclobutyl]carbamoyl}phen-oxy)pentyl]oxy}acetamido)butanoyl]-4-hydroxy-N-{[4-(4-methyl-1,3-oxazol-5-yl)phenyl]methyl}pyrrolidine-2-carboxamide]",,,> 71,< 50
"CC(C)(C)[C@H](NC(=O)COCCCCCOc1ccc(C(=O)N[C@H]2C(C)(C)[C@H](Oc3ccc(C#N)c(Cl)c3)C2(C)C)cc1)C(=O)N1C[C@H](O)C[C@H]1C(=O)NCc1ccc(-c2cnco2)cc1 [Example 153, (2S,4R)-1-[(2S)-3,3-dimethyl-2-(2-{[5-(4-{[trans-3-(3-chloro-4-cyanophenoxy)-2,2,4,4-tetramethylcyclobutyl]carbamoyl}phen-oxy)pentyl]oxy}acetamido)butanoyl]-4-hydroxy-N-{[4-(1,3-oxazol-5-yl)phenyl]methyl}pyrrolidine-2-carboxamide]",,,> 71,< 50
"Cc1ncoc1-c1ccc(CNC(=O)[C@@H]2C[C@@H](O)CN2C(=O)[C@@H](NC(=O)COCCCCCOc2ccc(C(=O)N[C@H]3C(C)(C)[C@H](Oc4ccc(C#N)c(C(F)(F)F)c4)C3(C)C)cc2)C(C)(C)C)cc1 [Example 154, (2S,4R)-1-[(2S)-3,3-dimethyl-2-(2-{[5-(4-{[trans--3-[4-cyano-3-(trifluoromethyl)phenoxy]-2,2,4,4-tetramethylcyclobutyl]carbamoyl}phen-oxy)pentyl]oxy}acetamido)butanoyl]-4-hydroxy-N-{[4-(4-methyl-1,3-oxazol-5-yl)phenyl]methyl}pyrrolidine-2-carboxamide]",,,> 71,< 50
